Our source for the IC50 values is patent publication US20060241301A1, “Urea derivatives and their use as tyrosinkinase inhibitors” (priority 2003, published 2006).

In one assay the target is RAF. Briefly: RAF kinase inhibition. Format: biochemical.
The target of the next assay is TIE-2 (Homo sapiens, UniProt Q02763). The experiment in a line: TIE-2 kinase flashplate assay (phosphorylation of poly(Glu, Tyr), 33P-ATP). The conditions noted are these: read-out: Inhibition by TIE-2 IC50. It is filed as biochemical. As for the experimental part: The TIE-2 tests can be carried out, for example, analogously to the methods indicated in WO 02/44156.
Sequence of TIE-2 (Q02763 23-1124, species assumed): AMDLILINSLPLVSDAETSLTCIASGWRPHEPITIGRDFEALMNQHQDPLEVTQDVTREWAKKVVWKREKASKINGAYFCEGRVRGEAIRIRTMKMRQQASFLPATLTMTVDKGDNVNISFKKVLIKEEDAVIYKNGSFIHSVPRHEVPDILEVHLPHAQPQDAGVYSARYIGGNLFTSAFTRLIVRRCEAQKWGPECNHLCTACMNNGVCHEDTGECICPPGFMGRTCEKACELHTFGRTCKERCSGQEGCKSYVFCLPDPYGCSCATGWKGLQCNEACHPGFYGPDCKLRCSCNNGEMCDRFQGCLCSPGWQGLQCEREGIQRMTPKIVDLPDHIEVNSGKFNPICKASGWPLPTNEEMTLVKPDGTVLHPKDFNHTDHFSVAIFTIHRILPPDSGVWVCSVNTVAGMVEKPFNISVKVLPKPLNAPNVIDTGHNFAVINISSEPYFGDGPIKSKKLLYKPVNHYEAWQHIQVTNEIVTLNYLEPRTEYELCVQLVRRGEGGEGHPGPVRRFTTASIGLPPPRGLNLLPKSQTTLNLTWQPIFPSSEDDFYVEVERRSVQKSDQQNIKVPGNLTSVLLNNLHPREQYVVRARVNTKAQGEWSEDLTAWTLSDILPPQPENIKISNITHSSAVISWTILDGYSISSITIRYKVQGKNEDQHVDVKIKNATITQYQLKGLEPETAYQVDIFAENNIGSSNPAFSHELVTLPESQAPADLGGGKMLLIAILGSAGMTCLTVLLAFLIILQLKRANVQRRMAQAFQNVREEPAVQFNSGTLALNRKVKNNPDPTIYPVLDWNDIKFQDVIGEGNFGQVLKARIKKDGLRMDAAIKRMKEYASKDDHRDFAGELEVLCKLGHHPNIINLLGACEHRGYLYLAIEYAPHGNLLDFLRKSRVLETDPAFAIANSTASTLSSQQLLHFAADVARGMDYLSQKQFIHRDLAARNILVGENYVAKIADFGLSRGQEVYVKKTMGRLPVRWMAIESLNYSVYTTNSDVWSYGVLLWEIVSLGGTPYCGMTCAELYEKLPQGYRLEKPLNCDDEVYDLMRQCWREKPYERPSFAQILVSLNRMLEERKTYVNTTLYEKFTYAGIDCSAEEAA
The assay determines the inhibiting activity of the substances to be tested in the phosphorylation of the substrate poly(Glu, Tyr) by Tie-2 kinase in the presence of radioactive ^33P-ATP. The phosphorylated substrate binds to the surface of a “flashplate” microtitre plate during the incubation time. After removal of the reaction mixture, the microtitre plate is washed a number of times and the radioactivity on its surface is subsequently measured. An inhibiting effect of the substances to be measured results in lower radioactivity compared with an undisturbed enzymatic reaction.

The structures appear in SMILES notation.

One may read the IC50 as the concentration needed to halve the response being measured. Regarding `CNC(=O)c1cc(Oc2ccc(NC(=O)Nc3ccc(Cl)c(C(F)(F)F)c3)cc2)ccn1`, the IC50 against RAF amounted to 0.264 µM.
Take `O=C(Nc1ccc(Oc2ccc3nsnc3c2)cc1)Nc1cc(C(F)(F)F)ccc1F` [A1, 1-[4-(Benzo-1,2,5-thiadiazol-5-yloxy)phenyl]-3-(2-fluoro-5-trifluoromethylphenyl)urea]: the IC50 stood at 0.057 µM on TIE-2 and 0.22 µM against RAF.
On to `CNC(=O)c1cc(Oc2ccc(NC(=O)Nc3cc(C(F)(F)F)ccc3F)cc2)ccn1` [No. 2, N-methyl-4-{4-[3-(fluorotrifluoromethylphenyl)ureido]phenoxy}pyridine-2-carboxamide], for which, on TIE-2, the IC50 came out at 0.032 µM.
